Results taken from the NIST ThermoML archive (doi:10.1021/je900709n).
± gives the expanded uncertainty stated by the source.

Key:
[1] = Liquid
[2] = φn = volume fraction of the nth substance listed; conditions: 101 kPa, Liquid; for viscosity: Capillary tube (Ostwald / Ubbelohde) method; for mass density: Pycnometric method

Row | viscosity ([1]; 298.15 K, 101.33 kPa, Capillary tube (Ostwald / Ubbelohde) method) | mass density ([1]; 298.15 K, 101.33 kPa, Pycnometric method) | Normal boiling temperature ([1]; Distillation) | viscosity ([2]; 298.15 K, φ2 = 0.3) | viscosity ([2]; 298.15 K, φ2 = 0.6) | viscosity ([2]; 298.15 K, φ2 = 0.9) | mass density ([2]; 298.15 K, φ2 = 0.3) | mass density ([2]; 298.15 K, φ2 = 0.6) | mass density ([2]; 298.15 K, φ2 = 0.9) | viscosity ([2]; 308.15 K, φ2 = 0.3) | viscosity ([2]; 308.15 K, φ2 = 0.6) | viscosity ([2]; 308.15 K, φ2 = 0.9) | mass density ([2]; 308.15 K, φ2 = 0.3) | mass density ([2]; 308.15 K, φ2 = 0.6) | mass density ([2]; 308.15 K, φ2 = 0.9) | Compound
1 | 0.575 ± 0.012 mPa·s | 1058.6 ± 1.2 kg/m3 | 75 ± 1 °C |  |  |  |  |  |  |  |  |  |  |  |  | C1COCO1 [1,3-dioxolane]
2 |  |  |  | 0.9716 ± 0.19 mPa·s | 1.357 ± 0.27 mPa·s | 0.9415 ± 0.19 mPa·s | 1049.2 ± 6 kg/m3 | 1039.1 ± 6 kg/m3 | 1009.2 ± 6 kg/m3 | 0.9314 ± 0.19 mPa·s | 1.133 ± 0.23 mPa·s | 0.822 ± 0.16 mPa·s | 1041.1 ± 6 kg/m3 | 1030.7 ± 6 kg/m3 | 1003.3 ± 6 kg/m3 | C1COCO1 [1,3-dioxolane] + O
